Measured values: PubChem BioAssay (NCI)
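A five-concentration, 48-hour dose response in 96-well plates underlies each endpoint, interpolated linearly between surrounding concentrations. At the GI50, growth is halved. TGI denotes the concentration required for complete inhibition of growth.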

Columns and labels:
Assay in all cases: DTP human tumour cell line panel, 48 h
DU-145 prostate = tested on: DU-145 prostate
NCI-H460 lung = tested on: NCI-H460 lung
OVCAR-5 ovarian = tested on: OVCAR-5 ovarian
HCT-116 colon = tested on: HCT-116 colon
M14 melanoma = tested on: M14 melanoma
HCT-15 colon = tested on: HCT-15 colon
SK-MEL-2 melanoma = tested on: SK-MEL-2 melanoma
NCI-H23 lung = tested on: NCI-H23 lung
ACHN renal = tested on: ACHN renal
HOP-62 NSCLC = tested on: HOP-62 NSCLC

| SMILES | TGI (DU-145 prostate) [µM] | TGI (NCI-H460 lung) [µM] | TGI (OVCAR-5 ovarian) [µM] | TGI (HCT-116 colon) [µM] | TGI (M14 melanoma) [µM] | TGI (HCT-15 colon) [µM] | TGI (SK-MEL-2 melanoma) [µM] | TGI (NCI-H23 lung) [µM] | TGI (ACHN renal) [µM] | TGI (HOP-62 NSCLC) [µM] | GI50 (HOP-62 NSCLC) [µM] | GI50 (DU-145 prostate) [µM] | GI50 (NCI-H460 lung) [µM] | GI50 (OVCAR-5 ovarian) [µM] | GI50 (HCT-15 colon) [µM] | GI50 (SK-MEL-2 melanoma) [µM] | GI50 (NCI-H23 lung) [µM] | GI50 (ACHN renal) [µM] |
| --- | --- | --- | --- | --- | --- | --- | --- | --- | --- | --- | --- | --- | --- | --- | --- | --- | --- | --- |
| Cc1ccc(S(=O)(=O)Nn2c(S)c(C#N)c(-c3ccc(Cl)cc3)c(C#N)c2=O)cc1 | > 100 | 31.4 | > 100 | > 100 | > 100 | 71.1 | > 100 | > 100 | > 100 |  |  |  |  |  |  |  |  |  |
| CC(=O)OCC1OC(O[C@H]2C=C[C@@H](C(=O)OCc3ccccc3)n3c(=O)n(-c4ccccc4)c(=O)n32)C(OC(C)=O)C(OC(C)=O)C1OC(C)=O (some centres undefined) | 8.47 | 3.05 | 4.75 |  | 2.95 | 2.44 | 10.1 | 9.02 | 3.09 |  |  |  |  |  |  |  |  |  |
| C=C1CN2CCc3c([nH]c4ccccc34)C2CC1CC(=O)N(C)C (centres undefined) |  | > 309 |  | > 309 |  | > 309 | > 309 | > 309 | > 309 | > 309 |  |  |  |  |  |  |  |  |
| O=c1c2cc([N+](=O)[O-])ccc2n2n1CCCCC2 | > 100 | > 100 | > 100 | > 100 | > 100 | > 100 |  | > 100 | > 100 | > 100 |  |  |  |  |  |  |  |  |
| O=C(Nc1ccc(Cl)cc1)c1cc(S(=O)(=O)N2CCNNC2=O)c(S)cc1Cl | > 100 | > 100 | > 100 | > 100 | > 100 | > 100 | > 100 |  | > 100 |  |  |  |  |  |  |  |  |  |
| CCCCCCCCCCCCCCCCCCOc1ccccc1COP(=O)(O)OOCC[N+](C)(C)C | 7.43 | 12.5 | 6.86 |  |  | 7.87 | 9.65 | 4.27 | 5.62 | 15.4 | 2.19 | 1.88 | 2.81 | 1.51 | 1.64 | 1.71 | 0.804 | 1.45 |
| N=c1oc2cc(O)ccc2cc1C(=O)Nc1cccc2ccccc12 | 20 | 30.2 | 36.3 | 14.7 | 60 | 11.5 |  | 12.9 | 15.9 | > 44 |  |  |  |  |  |  |  |  |
| C=C(C)[C@H]1CC(=O)[C@@]2(C)C[C@H]3O[C@]3(C)CC/C=C(\C)CC[C@H]12 | > 100 | > 100 | > 100 | 85.4 |  | > 100 | > 100 | > 100 | > 100 | > 100 |  |  |  |  |  |  |  |  |
| O=C(Nc1ccc(F)cc1)c1cc2c(cc1Cl)Sc1nccn1S2(=O)=O | > 100 | > 100 | > 100 | > 100 | > 100 | > 100 | > 100 |  | > 100 | 92.9 |  |  |  |  |  |  |  |  |
| Cc1cccc(-c2nc(-c3cnccn3)n(Cc3ccccc3)n2)c1 | > 100 | > 100 | > 100 | > 100 | > 100 | > 100 |  | > 100 |  | > 100 |  |  |  |  |  |  |  |  |
| Cn1c(=O)c2c(=O)cc(N)[nH]c2n(C)c1=O | > 100 | > 100 | > 100 | > 100 | > 100 |  | > 100 | > 100 | > 100 | > 100 |  |  |  |  |  |  |  |  |
| CC1(C)N([O-])[N+](=O)C1(C)O (centres undefined) | > 100 | > 100 | > 100 | > 100 | > 100 | > 100 | > 100 | > 100 |  |  |  |  |  |  |  |  |  |  |
| O=C(O)c1ccc(Nc2cnc3cc(C(F)(F)F)ccc3n2)cc1 | > 100 | > 100 | > 100 | > 100 |  | 83.5 |  | > 100 | > 100 | > 100 |  |  |  |  |  |  |  |  |
| O=C1CN(c2ccccc2)C(=O)CN1NCNN1CC(=O)N(c2ccccc2)CC1=O | > 100 | > 100 | > 100 | > 100 | > 100 | > 100 |  | > 100 | > 100 | > 100 |  |  |  |  |  |  |  |  |
| CN(/N=C/C=N/N(C)C1=NCCN1)C1=NCCN1 | > 100 | > 100 | > 100 | > 100 | > 100 | > 100 |  | > 100 | > 100 | > 100 |  |  |  |  |  |  |  |  |
| C=C(C)COc1cc(NC(=S)OC(C)C)ccc1Cl | 31.1 | 30.8 | 29.4 | 28.4 | 31.7 | 30.6 | 27.2 | 31.3 | 31.1 |  |  |  |  |  |  |  |  |  |
| COc1ccc(Nc2cc(=O)[nH]c(=O)[nH]2)cc1 | > 100 | > 100 | > 100 | > 100 | > 100 | > 100 |  | > 100 | > 100 | > 100 |  |  |  |  |  |  |  |  |
| CC(N)C(C)c1ccccc1 (centres undefined) |  | > 100 | > 100 | > 100 | > 100 | > 100 | > 100 | > 100 | > 100 | > 100 |  |  |  |  |  |  |  |  |
| COc1cccc(/C=N/[N-]C(N)=O)c1[O-].[Co+2].[OH3+].c1ccncc1 |  | > 100 | > 100 | > 100 | > 100 | > 100 | > 100 | > 100 | > 100 | > 100 |  |  |  |  |  |  |  |  |
| CCCC(C(=O)OC)C1N=C(NC#N)N(Cc2ccccc2)C1=O (centres undefined) |  | > 100 | > 100 | > 100 | > 100 | > 100 | > 100 | > 100 | > 100 | > 100 |  |  |  |  |  |  |  |  |
| COc1ccc(-c2cc(=O)c3cc(O)ccc3o2)c(OC)c1OC |  |  | 81.4 | 61.8 | > 100 | > 100 | > 100 | > 100 | 93.6 | > 100 |  |  |  |  |  |  |  |  |
| COC(=O)c1c2c(cc3c1CC1(C3)Cc3cc4c(c(C(=O)OC)c3C1)CCC4)CCC2 |  |  | > 100 | > 100 | > 100 |  | > 100 | > 100 | > 100 | > 100 |  |  |  |  |  |  |  |  |
| CC1CCc2c(sc3ncnc(N/N=C/c4ccc(Cl)cc4)c23)C1 (centres undefined) |  | > 100 | > 100 | > 100 | 68.2 | > 100 | > 100 | > 100 | 94.9 | > 100 |  |  |  |  |  |  |  |  |
